Patent US9050477B2, “Cosmetic compositions comprising oridonin and new cosmetic uses” (SEDERMA, priority 2009, dated 2015)

Experiments:
chorioallantoic membrane = test: Anti-redness effect: Het-CAM method; settings: 5000 ppm aspirin (positive control); SDS irritant; irritant alone 10 +/− 1.63
From the text: b. Evaluation of the Anti-Redness Effect: Het-CAM Method The Het-CAM model is recommended as an alternative method for the evaluation of the irritant effect of cosmetics. The model uses eggs at a very early stage of development since the nervous system is not yet fully developed (JORF No. 300, Dec. 26, 1996). A moderately irritant product induces instantaneous changes in the capillary density of the chorioallantoic membrane. Previously invisible blood vessels become clearly visible under the effect of vasodilatation. This property was exploited to evaluate the effect of the combination of oridonin and darutoside. The combination oridonin+darutoside was applied to the surface of the chorioallantoic membrane and, after incubation, a surfactant, used as an SDS irritant agent, in an appropriate concentration, was applied to the surface of the membrane. A score was determined by an experienced operator and compared to that for the membranes exposed to the irritant alone (negative control) and that for the membranes exposed to aspirin, used as the positive control (JORF published method, modified).

Human melanocytes = test: Melanogenesis of human melanocytes in monolayer (melanin content); format: cell-based; settings: 5 days, n=4
Description: iii. Change in the Melanogenesis of Human Melanocytes in Monolayer
Human melanocytes were cultured and exposed with the test products for 5 days. After incubation the melanin content was measured in cell homogenates (n=4).

[1] = Oxygen-Radical Absorbance Capacity (ORAC) test; format: biochemical; settings: n = 6, vs control
From the text: a. Reduction in Peroxyl Radicals: ORAC Test
The Oxygen-Radical Absorbance Capacity (ORAC) test is a method enabling evaluation of the antioxidant capability of molecules and extracts of plant origin. […] The free radical-induced […] of fluorescein decreases its fluorescence. The antioxidant molecules will reduce this degradation

[2] = test system: reduced glutathione (GSH); test: Stimulation of reduced glutathione (GSH) synthesis, ELISA; format: cell-based; settings: human keratinocytes, 24 h
Description: c. Stimulation of Reduced Glutathione (GSH) Synthesis
Human keratinocytes at confluence are exposed 24 h to tested products. Intracellular GSH concentration was determined by ELISA.

G3PDH = test: Slimming: G3PDH activity in differentiating human preadipocytes; format: cell-based; settings: for Act G3PDH: 10 days of differentiation, control 220.2 +/− 32.8; for Act G3PDH % Change: vs control
Description: Human preadipocytes are cultured and induced to differentiate in the presence of oridonin. After 10 days of differentiation, G3PDH activity was measured in cell homogenates as a marker of differentiation. (n=4).

CC(=O)Oc1ccccc1C(=O)O [aspirin]
Mean score (inflammation index) (chorioallantoic membrane): 2 +/− 2.06

C=C1C(=O)[C@]23[C@H](O)[C@H]1CC[C@H]2[C@@]12CO[C@]3(O)[C@@H](O)[C@@H]1C(C)(C)CC[C@@H]2O [oridonin]
% Change/control (melanin content) (Human melanocytes; oridonin alone, 2.25 ppm): −23%; p < 0.01 | % Change/control (melanin content) (Human melanocytes; oridonin alone, 3 ppm): −34%; p < 0.01 | % Change/control (melanin content) (Human melanocytes; oridonin alone, 5 ppm (so in the source)): −21%; p < 0.01 | % Change/control (melanin content) (Human melanocytes; oridonin alone, 125 ppm (so in the source)): −16%; p < 0.01 | effect on the reduction of the destruction of fluorescein by free radicals ([1]; oridonin 1.5 ppm): +14%; p < 0.01 | effect on the reduction of the destruction of fluorescein by free radicals ([1]; oridonin 3 ppm): +4%; dns | effect on the reduction of the destruction of fluorescein by free radicals ([1]; oridonin 4.5 ppm): −4%; dns | GSH change as % of control ([2]; oridonin 3 ppm): +41%; p < 0.01 | GSH change as % of control ([2]; oridonin 4.5 ppm): +79%; p < 0.01 | Act G3PDH (G3PDH; oridonin 2.7 ppm): 162.1 +/− 31.4 mU/10^6 cell | Act G3PDH % Change (G3PDH; oridonin 2.7 ppm): −26%; p < 0.05 | Act G3PDH (G3PDH; oridonin 3.6 ppm): 127.7 +/− 19.2 mU/10^6 cell | Act G3PDH % Change (G3PDH; oridonin 3.6 ppm): −42%; p < 0.01

darutoside
% Change/control (melanin content) (Human melanocytes; darutoside alone, 3.75 ppm): +1%; dns | % Change/control (melanin content) (Human melanocytes; darutoside alone, 5 ppm): +2%; dns | % Change/control (melanin content) (Human melanocytes; darutoside alone, 7.5 ppm): −4%; dns | % Change/control (melanin content) (Human melanocytes; darutoside alone, 10 ppm): −7%; p < 0.05 | GSH change as % of control ([2]; darutoside 10 ppm): +3%; dns | GSH change as % of control ([2]; darutoside 15 ppm): +2%; dns
